Where a name gives a salt, the structure may show the parent alone.
molecular target: T1, recombinant guanylate cyclase reporter cell line (Rattus norvegicus, UniProt P19686+P20595); assay: Effect on a recombinant guanylate cyclase reporter cell line (B-2); type: cell-based; conditions: in some cases mean values for individual determinations
T1 construct: expressed in transfected cells
T1 sequence (P19686 1-690): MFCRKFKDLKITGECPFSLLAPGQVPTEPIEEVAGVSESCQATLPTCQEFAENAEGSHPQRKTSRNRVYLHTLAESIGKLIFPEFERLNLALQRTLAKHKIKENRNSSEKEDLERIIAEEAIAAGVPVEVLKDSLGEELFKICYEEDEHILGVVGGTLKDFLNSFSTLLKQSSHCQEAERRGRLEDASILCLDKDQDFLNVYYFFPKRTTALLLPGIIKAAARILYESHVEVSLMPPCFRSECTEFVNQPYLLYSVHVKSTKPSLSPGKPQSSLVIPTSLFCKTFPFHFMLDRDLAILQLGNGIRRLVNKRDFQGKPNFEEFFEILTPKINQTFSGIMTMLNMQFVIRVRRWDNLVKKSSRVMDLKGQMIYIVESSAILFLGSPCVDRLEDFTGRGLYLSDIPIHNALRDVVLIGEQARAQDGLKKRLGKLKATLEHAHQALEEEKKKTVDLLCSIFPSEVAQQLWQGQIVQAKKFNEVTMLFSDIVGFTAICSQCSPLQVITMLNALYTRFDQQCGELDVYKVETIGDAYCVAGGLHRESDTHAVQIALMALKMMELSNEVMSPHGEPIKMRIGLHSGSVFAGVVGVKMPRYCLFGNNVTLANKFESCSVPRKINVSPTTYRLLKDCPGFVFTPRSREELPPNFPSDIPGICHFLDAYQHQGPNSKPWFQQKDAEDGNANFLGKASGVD
T1 sequence (P20595 1-619): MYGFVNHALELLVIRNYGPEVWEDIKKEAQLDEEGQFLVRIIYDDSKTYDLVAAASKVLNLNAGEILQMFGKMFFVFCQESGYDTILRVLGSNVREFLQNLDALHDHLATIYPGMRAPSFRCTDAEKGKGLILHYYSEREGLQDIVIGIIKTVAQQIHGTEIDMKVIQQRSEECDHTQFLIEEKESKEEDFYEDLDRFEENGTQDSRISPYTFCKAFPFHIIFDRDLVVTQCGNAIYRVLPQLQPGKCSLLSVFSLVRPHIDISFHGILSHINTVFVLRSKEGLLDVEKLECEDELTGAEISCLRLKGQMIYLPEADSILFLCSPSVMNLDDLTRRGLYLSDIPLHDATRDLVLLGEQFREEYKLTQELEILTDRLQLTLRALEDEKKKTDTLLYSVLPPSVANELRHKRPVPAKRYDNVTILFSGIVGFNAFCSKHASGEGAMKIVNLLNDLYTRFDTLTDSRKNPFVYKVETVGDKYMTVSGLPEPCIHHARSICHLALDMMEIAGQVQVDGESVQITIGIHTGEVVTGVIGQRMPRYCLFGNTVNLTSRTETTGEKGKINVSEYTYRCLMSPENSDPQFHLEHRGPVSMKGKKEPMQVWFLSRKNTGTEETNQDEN
Experimental: B-2. Effect on a Recombinant Guanylate Cyclase Reporter Cell Line
The cellular effect of the inventive compounds is determined using a recombinant guanylate cyclase reporter cell line, as described in F. Wunder et al., Anal. Biochem. 339, 104-112 (2005).
Representative MEC values (MEC=minimum effective concentration) for the inventive compounds are shown in the table below (in some cases as mean values for individual determinations): […]

| Compound | MEC (minimum effective concentration) [µM] |
| --- | --- |
| Cc1cc(OCc2c(F)cccc2F)n2nc(C)c(C(=O)NCC3CSCCN3)c2c1 (racemic) [Example 88, rac-7-[(2,6-Difluorobenzyl)oxy]-2,5-dimethyl-N-(thiomorpholin-3-ylmethyl)pyrazolo[1,5-a]pyridine-3-carboxamide] | 1.0 |
| Cc1cc(OCc2c(F)cccc2F)n2nc(C)c(C(=O)NC3CCC(N)C3)c2c1 (racemic) [Example 130, rac-N-(3-Aminocyclopentyl)-7-[(2,6-difluorobenzyl)oxy]-2,5-dimethylpyrazolo[1,5-a]pyridine-3-carboxamide] | 3.0 |
| Cc1cc(OCc2c(F)cccc2F)n2nc(C)c(C(=O)NCC(N)c3cnn(C)c3)c2c1 (racemic) [Example 136, rac-N-[2-Amino-2-(1-methyl-1H-pyrazol-4-yl)ethyl]-7-[(2,6-difluorobenzyl)oxy]-2,5-dimethylpyrazolo[1,5-a]pyridine-3-carboxamide] | 10 |
| Cc1cc(OCc2c(F)cccc2F)n2nc(C)c(C(=O)NC3CCOc4ccccc43)c2c1 (racemic) [Example 87, rac-7-[(2,6-Difluorobenzyl)oxy]-N-(3,4-dihydro-2H-chromen-4-yl)-2,5-dimethylpyrazolo[1,5-a]pyridine-3-carboxamide] | 0.3 |
| C=Cc1cccc(C(N)CNC(=O)c2c(C)nn3c(OCc4c(F)cccc4F)cc(C)cc23)c1 (racemic) [Example 141, rac-N-[2-Amino-2-(3-vinylphenyl)ethyl]-7-[(2,6-difluorobenzyl)oxy]-2,5-dimethylpyrazolo[1,5-a]pyridine-3-carboxamide] | 3.0 |
| Cc1cc(OCc2c(F)cccc2F)n2nc(C)c(C(=O)NCC(C)(N)CC(F)F)c2c1 (single isomer, unassigned) [Example 46, ent-N-(2-Amino-4,4-difluoro-2-methylbutyl)-7-[(2,6-difluorobenzyl)oxy]-2,5-dimethylpyrazolo[1,5-a]pyridine-3-carboxamide] | 2.0 |
| Cc1cc(OCc2c(F)cccc2F)n2nc(C)c(C(=O)N[C@H]3C[C@H]4CN(C)CCN4C3)c2c1 [Example 113, 7-[(2,6-Difluorobenzyl)oxy]-2,5-dimethyl-N-[(7S,8aS)-2-methyloctahydropyrrolo[1,2-a]pyrazin-7-yl]pyrazolo[1,5-a]pyridine-3-carboxamide] | 3.0 |
| Cc1cc(OCc2c(F)cccc2F)n2nc(C)c(C(=O)N[C@@H]3CNC[C@@H]3F)c2c1 (relative stereo) [Example 128, rel-7-[(2,6-Difluorobenzyl)oxy]-N-[(3R,4S)-4-fluoropyrrolidin-3-yl]-2,5-dimethylpyrazolo[1,5-a]pyridine-3-carboxamide] | 1.0 |
| Cc1cc(OCc2c(F)cccc2F)n2nc(C)c(C(=O)N[C@@H](CC(=O)O)CC(C)C)c2c1 [Example 38, (3R)-3-[({7-[(2,6-Difluorobenzyl)oxy]-2,5-dimethylpyrazolo[1,5-a]pyridin-3-yl}carbonyl)amino]-5-methylhexanoic Acid] | 3.0 |
| Cc1cc(OCc2c(F)cccc2F)n2nc(C)c(C(=O)NCC(N)c3cccc(OC(F)F)c3)c2c1 (racemic) [Example 116, rac-N-{2-Amino-2-[3-(difluoromethoxy)phenyl]ethyl}-7-[(2,6-difluorobenzyl)oxy]-2,5-dimethylpyrazolo[1,5-a]pyridine-3-carboxamide] | 3.0 |
| Cc1cc(OCc2c(F)cccc2F)n2nc(C)c(C(=O)NCC3(N)CC3)c2c1 [Example 118, N-[(1-Aminocyclopropyl)methyl]-7-[(2,6-difluorobenzyl)oxy]-2,5-dimethylpyrazolo[1,5-a]pyridine-3-carboxamide] | 0.3 |
| Cc1cc(OCc2c(F)ccc(F)c2F)n2nc(C)c(C(=O)NC(CO)c3ccc(F)cc3)c2c1 (racemic) [Example 30, rac-N-[1-(4-Fluorophenyl)-2-hydroxyethyl]-2,5-dimethyl-7-[(2,3,6-trifluorobenzyl)oxy]pyrazolo[1,5-a]pyridine-3-carboxamide] | 0.1 |
| Cc1cc(OCc2c(F)cccc2F)n2nc(C)c(C(=O)N[C@@H](CC(=O)OC(C)(C)C)CC(C)C)c2c1 [Example 37, tert-Butyl (3R)-3-[({7-[(2,6-difluorobenzyl)oxy]-2,5-dimethylpyrazolo[1,5-a]pyridin-3-yl}carbonyl)amino]-5-methylhexanoate] | 10 |
| CCOC(=O)c1cccc(C(CN)NC(=O)c2c(C)nn3c(OCc4c(F)cccc4F)cc(C)cc23)n1 (racemic) [Example 83, rac-Ethyl 6-{2-amino-1-[({7-[(2,6-difluorobenzyl)oxy]-2,5-dimethylpyrazolo[1,5-a]pyridin-3-yl}carbonyl)amino]ethyl} pyridine-2-carboxylate trifluoroacetate] | 3.0 |
| Cc1cc(OCc2c(F)cccc2F)n2nc(C)c(C(=O)NC3CCCc4c(N)cccc43)c2c1 (racemic) [Example 139, rac-N-(5-Amino-1,2,3,4-tetrahydronaphthalen-1-y1)-74(2,6-difluorobenzyl)oxy]-2,5-dimethylpyrazolo[1,5-a]pyridine-3-carboxamide] | 1.0 |
| CCCC(C)(N)CNC(=O)c1c(C)nn2c(OCc3c(F)ccc(OC)c3F)cc(C)cc12 (racemic) [Example 161, rac-N-(2-Amino-2-methylpentyl)-7-[(2,6-difluoro-3-methoxybenzyl)oxy]-2,5-dimethylpyrazolo[1,5-a]pyridine-3-carboxamide] | 3.0 |
| Cc1cc(OCc2c(F)cccc2F)n2nc(C)c(C(=O)NCC3(N)COC3)c2c1 [Example 60, N-[(3-Aminooxetan-3-yl)methyl]-7-[(2,6-difluorobenzyl)oxy]-2,5-dimethylpyrazolo[1,5-a]pyridine-3-carboxamide] | 3.0 |

From US9422285B2, “Substituted pyrazolo[1,5-A]-pyridine-3-carboxamides and use thereof” (Bayer Pharma Aktiengesellschaft, priority 2014, dated 2016)
